A short description of data set [1]: reversed-phase LC retention time (C18, 15 min MeOH gradient); higher = more hydrophobic / later elution. The procedure:
(§1)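 Reference mixture of environmental contaminants analysed by RP-LC (BEH C18, 50 °C; ESI+ with water/MeOH plus formic acid and ammonium formate, ESI- with ammonium bicarbonate) coupled to a timsTOF Pro 2 with trapped ion mobility in nitrogen (ramp/accumulation 100 ms). CCS was calibrated with Agilent tune mix (CCS compendium) and averaged over five injections at 0.5-500 ng/mL. The table reports the lowest-CCS (putative monomer) peak; retention times are on the same gradient.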

Data set [2] can be described thus: collision cross section (TIMS, N2 drift gas) of the primary ion; higher = larger gas-phase ion size. The procedure: as §1
[3] abbreviates: ionization mode: ESI+, ion species: [M+H]+.
[4] abbreviates: ionization mode: ESI-, ion species: [M-H]-.

In the case of `O=S(=O)(O)c1nc2ccccc2s1` [2-Benzothiazolesulfonic acid], the results for the “reversed-phase LC retention time” value in data set [1] (setting [3]) and in data set [1] (setting [4]) were 7.62 min and 7.26 min, respectively. The collision cross section is 141.34 Å² in data set [2] (setting [3]) and 139.34 Å² in data set [2] (setting [4]).
For `CCCCCCCCOc1ccc(C(=O)c2ccccc2)c(O)c1` [2-Hydroxy-4-(octyloxyl)benzophenone], in that order: 18.9 min, 19.6 min, 193.92 Å² and 193.31 Å².
For `CCNc1nc(O)nc(NC(C)C)n1` [2-Hydroxyatrazine] the same measures were 8.5 min, 10.7 min, 147.52 Å² and 146.65 Å².
Turning to `O=c1[nH]c2ccccc2s1` [2-Hydroxybenzothiazole], the entries for the “reversed-phase LC retention time” value in data set [1] (setting [3]) and in data set [1] (setting [4]) were 10.5 min and 10.6 min, respectively. Further, the collision cross section in data set [2] (setting [3]) is listed as 126.56 Å²; in data set [2] (setting [4]), 122.14 Å².
In the case of `NC(=O)N1c2ccccc2C=Cc2cc(O)ccc21` [2-Hydroxycarbamazepine], the “reversed-phase LC retention time” value in data set [1] (setting [3]) is 10.3 min. Moreover, the collision cross section in data set [2] (setting [3]) was 155.33 Å².
Take `Oc1ccc2c(c1)[nH]c1ccccc12` [2-Hydroxycarbazole]: the “reversed-phase LC retention time” value in data set [1] (setting [4]) is 12.4 min. In data set [2] (setting [4]), this compound came in with a collision cross section of 138.96 Å².
Turning to `CC(C)(C)Nc1nc(N)nc(O)n1` [2-Hydroxydesethylterbuthylazine], the “reversed-phase LC retention time” value in data set [1] (setting [3]) came to 6.43 min; in data set [1] (setting [4]), 8.55 min. For the same compound, the figures for the collision cross section in data set [2] (setting [3]) and in data set [2] (setting [4]) were 142.3 Å² and 140.22 Å², respectively.
On to `Cc1cc(=O)[nH]c(C(C)C)n1` [2-Isopropyl-6-methyl-pyrimidin-4-ol], for which the “reversed-phase LC retention time” value in data set [1] (setting [3]) was 7.51 min. For the same compound, the collision cross section in data set [2] (setting [3]) was 131.58 Å².
For `CC(C)c1ccc2sc3ccccc3c(=O)c2c1` [2-Isopropylthioxanthone] the same measures were 17.1 min and 155.68 Å².
With `CCNS(=O)(=O)C(F)(F)C(F)(F)C(F)(F)C(F)(F)C(F)(F)C(F)(F)C(F)(F)C(F)(F)F` [2-N-Ethylperfluorooctanesulfonamide], the “reversed-phase LC retention time” value in data set [1] (setting [4]) worked out at 17.6 min. The compound further had a collision cross section in data set [2] (setting [4]) of 178.3 Å².
For the compound `O=S(=O)(O)c1ccc2ccccc2c1` [2-Naphthalenesulfonic acid], the “reversed-phase LC retention time” value in data set [1] (setting [4]) came to 8.49 min. In addition, the collision cross section in data set [2] (setting [4]) is recorded as 142.13 Å².
Regarding `O=S(=O)(O)c1cccc2ccc(O)cc12` [2-Naphthol-8-sulfonic acid], the “reversed-phase LC retention time” value in data set [1] (setting [4]) turned out to be 7.16 min. Besides, the collision cross section in data set [2] (setting [4]) was 144.25 Å².
As for `CCCCCCCCn1sccc1=O` [2-Octyl-4-isothiazolin-3-one], the “reversed-phase LC retention time” value in data set [1] (setting [3]) was 14.9 min. This compound also registered a collision cross section in data set [2] (setting [3]) of 157.49 Å².
On to `Oc1ccccc1-c1ccccc1` [2-Phenylphenol], for which the “reversed-phase LC retention time” value in data set [1] (setting [4]) came to 13.9 min. In data set [2] (setting [4]), this compound returned a collision cross section of 134.42 Å².
For the compound `O=[PH]1Oc2ccccc2-c2ccccc21` (centres undefined) [3,4,5,6-Dibenzo-1,2-oxaphosphane-2-oxide], the “reversed-phase LC retention time” value in data set [1] (setting [4]) was 8.76 min. Besides, in data set [2] (setting [4]), the collision cross section was 144.27 Å².
For `Oc1cc(Cl)c(Cl)c(Cl)c1` [3,4,5-Trichlorophenol] the same measures were 14.7 min and 126.86 Å².
Consider `NC(=O)Nc1ccc(Cl)c(Cl)c1` [3,4-Dichlorophenylurea], for which the figures for the “reversed-phase LC retention time” value in data set [1] (setting [3]) and in data set [1] (setting [4]) were 12.2 min and 12.4 min, respectively. The collision cross section in data set [2] (setting [3]) is 146.21 Å²; in data set [2] (setting [4]) it was 134.15 Å².
`Oc1nc(Cl)c(Cl)cc1Cl` [3,5,6-Trichloro-2-pyridinol]: in data set [1] (setting [4]), the “reversed-phase LC retention time” value turned out to be 11.2 min. The collision cross section in data set [2] (setting [4]) turned out to be 125.88 Å².
For `CC(=O)c1cc(C(C)(C)C)c(O)c(C(C)(C)C)c1` [3,5-Di-tert-butyl-4'-hydroxyacetophenone] the same measures were 16.3 min and 165.11 Å².
For `N#Cc1cc(Br)c(O)c(Br)c1` [3,5-Dibromo-4-hydroxybenzonitrile], in that order: 8.01 min and 129.33 Å².
`Cc1ccc(N)cc1Cl` [3-Chloro-4-methylaniline]: the “reversed-phase LC retention time” value in data set [1] (setting [3]) amounted to 12.2 min. This compound also returned a collision cross section in data set [2] (setting [3]) of 148.73 Å².
For `CN(C)C(=O)NC1CCCCC1` [3-Cyclohexyl-1,1-dimethylurea], in that order: 10.8 min and 139.49 Å².
`Oc1cc(-c2ccc(Cl)cc2)ccc1Cl` [3-Hydroxy-4,4'-dichlorobiphenyl]: in data set [1] (setting [4]), the “reversed-phase LC retention time” value amounted to 16.1 min. In data set [2] (setting [4]), this compound registered a collision cross section of 149.63 Å².
`CCCCNC(=O)OCC#CI` [3-Iodopropynyl butylcarbamate]: the “reversed-phase LC retention time” value in data set [1] (setting [3]) stood at 12.8 min. The same compound returned a collision cross section in data set [2] (setting [3]) of 147.73 Å².
Regarding `Nc1ccc(/C=C/c2ccc(N)cc2S(=O)(=O)O)c(S(=O)(=O)O)c1` [4,4'-Diaminostilbene-2,2'-disulfonic acid], the “reversed-phase LC retention time” value in data set [1] (setting [4]) worked out at 0.97 min. The collision cross section in data set [2] (setting [4]) is 178.47 Å².
In the case of `Cc1cc(Cc2ccc(N)c(C)c2)ccc1N` [4,4'-Methylene-bis(2-methyl aniline)], the “reversed-phase LC retention time” value in data set [1] (setting [3]) was 8.47 min. The compound further yielded a collision cross section in data set [2] (setting [3]) of 171.67 Å².

Source of the values: the supplement of paper PMC12613149.
